Reference: patent US4022834A, “Antibacterially active hexamethylene-bis-biguanides” (priority 1972, dated 1977)
Where a name gives a salt, the structure may show the parent alone. Read-outs that look alike come from different tables or passages of the source.

Assays:
Aerobacter aerogenes = assay: Inhibition of growth in aqueous solution and subcultivation in liquid medium, Aerobacter aerogenes; assay type: cell-based; conditions: Reference: Chlorohexidine=1
Source text: (§1) Inhibition of growth in aqueous solution and subcultivation in liquid medium. Reference: Chlorohexidine=1.

plaque [1] = assay: Plaque-index on test persons after mouth rinsing; assay type: in vivo; conditions: rinsing with 10 ml of 1,1 mM solution 3 times daily for 3 days; scale 0 (no plaque) to 3 (clearly visible plaque marginally)
Description: Plaque-index on test persons after rinsing with 10 ml of 1,1 mM solution 3 times daily for 3 days. The rinsing was during this time the only type of oral hygiene used.
Plaque-index, which is a recognized measure of plaque-inhibiting property, runs from 0 (no plaque) to 3 (clearly visible plaque marginally).

Staph. aureus = assay: Inhibition of growth in aqueous solution and subcultivation in liquid medium, Staph. aureus; assay type: cell-based; conditions: Reference: Chlorohexidine=1
Source text: as §1

human epithelial cells = assay: Cytotoxic effect on human epithelial cells in vitro; assay type: cell-based
Description: Cytotoxic effect on human epithelial cells in vitro after treatment for 5 minutes at 37° C. Reference: Chlorohexidine=1.

[2] = Acute peroral toxicity in mice; conditions: mouse, in vivo, po
bacteria = conditions: cited from earlier work
plaque [3] = assay: Plaque-index on test persons after mouth rinsing; assay type: in vivo; conditions: rinsing with 1,6 mM chlorohexidine under the same conditions; scale 0 to 3
plaque [4] = conditions: rinsing of the mouth; cited from earlier work
[5] = treatment for 5 minutes at 37° C., Reference: Chlorohexidine=1

Row | Compound | Inhibition of growth relative to chlorohexidine (Aerobacter aerogenes) | Plaque index (plaque [1]) | Inhibition of growth relative to chlorohexidine (Staph. aureus) | Cytotoxic effect relative to chlorohexidine (human epithelial cells; [5]) | Cytotoxic effect relative to chlorohexidine (human epithelial cells) | LD50 [2] | Toxicity compared with chlorohexidine (in words) (human epithelial cells; human epithelial cells in vitro) | Antibacterial activity (in words) (bacteria) | Plaque index (plaque [3]) | Effect against gingivitis and caries (in words) (plaque [4]) | Inhibition of plaque formation (in words) (plaque [4])
1 | CCC(C)CC(C)NC(=N)NC(=N)NCCCCCCNC(=N)NC(=N)NC(C)CC(C)CC (stereo not shown) [Compound 7, 1,1'-hexamethylene-bis-[5-(1,3-dimethylpenthyl)-biguanide]-dihydrochloride] | 1 | 0,29 | 8 | 1 | – | – | – | – | – | – | –
2 | N=C(NCCCCCCNC(=N)NC(=N)N1CC2CCC(CC2)C1)NC(=N)N1CC2CCC(CC2)C1 [Compound 2] | 1 | 0,58 | 1 | – | 1/8 | – | – | – | – | – | –
3 | N=C(NCCCCCCNC(=N)NC(=N)NC1CC2CCC1C2)NC(=N)NC1CC2CCC1C2 (stereo not shown) [Compound 5, 1,1'-hexamethylene-bis-[5-(2-endonorbornyl]biguanide)-dihydrochloride] | 1/8 | 0,50 | 1/2 | 1/8 | – | – | – | – | – | – | –
4 | [H]/N=C(\N/C(=N/[H])NCCCCCCNC(=N)NC(=N)Nc1ccc(Cl)cc1)Nc1ccc(Cl)cc1 [Chlorohexidine-digluconate, reference compound] | – | – | – | – | – | 1800 mg/kg | – | – | – | – | –
5 | N=C(NCCCCCCNC(=N)NC(=N)NCC1CCCCC1)NC(=N)NCC1CCCCC1 [Compound 3] | 8 | 0,19 | 2 | 1/2 | – | – | – | – | – | – | –
6 | CC(C)CCCC(C)NC(=N)NC(=N)NCCCCCCNC(=N)NC(=N)NC(C)CCCC(C)C (stereo not shown) [Compound 1, 1,1'-hexamethylene-bis-[5-(1,5-dimethylhexyl)biguanide]dihydrochloride] | 16 | 0,36 | 4 | – | – | 1690 mg/kg | – | – | – | – | –
7 | N=C(NCCCCCCNC(=N)NC(=N)NC12CC3CC(CC(C3)C1)C2)NC(=N)NC12CC3CC(CC(C3)C1)C2 [Compound 4, 1,1'-hexamethylene-bis-[5-(1-adamantyl)biguanide]dihydrochloride] | 8 | 0,36 | 16 | – | – | 2830 mg/kg | – | – | – | – | –
8 | CC(C)CCC(C)NC(=N)NC(=N)NCCCCCCNC(=N)NC(=N)NC(C)CCC(C)C.Cl.Cl (stereo not shown) [Compound 8, 1,1'-hexamethylene-bis-[5-(1,4-dimethylpentyl)biguanide]-dihydrochloride] | 1 | 0,70 | 8 | 1 | – | – | – | – | – | – | –
9 | CCCCC(CC)CNC(=N)NC(=N)NCCCCCCNC(=N)NC(=N)NCC(CC)CCCC (stereo not shown) [Compound 9, 1,1'-hexamethylene-bis-[5-(2-ethylhexyl)biguanide], reference compound] | 2 | 0,52 | 8 | 4 | – | – | much more toxic | known for having antibacterial activity | – | – | –
10 | CCCCCC(C)NC(=N)NC(=N)NCCCCCCNC(=N)NC(=N)NC(C)CCCCC.Cl.Cl (stereo not shown) [Compound 6, 1,1'-hexamethylene-bis-[5-(1-methylhexyl)biguanide]-dihydrochloride] | 1 | 0,27 | 4 | 1 | – | – | – | – | – | – | –
11 | N=C(NCCCCCCNC(=N)NC(=N)Nc1ccc(Cl)cc1)NC(=N)Nc1ccc(Cl)cc1 [chlorohexidine, 1,1'-hexamethylene-bis-[5-(4-chlorophenyl)biguanide]] | – | – | – | – | – | – | – | antibacterial effect | 0,75 | prophylactic effect against gingivitis and caries | marked inhibiting effect on the formation of plaque
